Results on six compounds are retold here after article PMC8541017, “Potent and Selective Inhibitors of Human Monoamine Oxidase A from an Endogenous Lichen Fungus Diaporthe mahothocarpus” (Journal of Fungi, 2021).

Molecules are shown by their SMILES. “And” between values parts separate entries of the source, which are not always exact repeats. Equal values may be shown once. Read-outs that look alike come from different tables or passages of the source. Where only a bound is given, the exact number is not on record here.

Data set [1] addresses T1, hMAO-A (Homo sapiens, UniProt P21397).
T1 sequence (P21397 1-527): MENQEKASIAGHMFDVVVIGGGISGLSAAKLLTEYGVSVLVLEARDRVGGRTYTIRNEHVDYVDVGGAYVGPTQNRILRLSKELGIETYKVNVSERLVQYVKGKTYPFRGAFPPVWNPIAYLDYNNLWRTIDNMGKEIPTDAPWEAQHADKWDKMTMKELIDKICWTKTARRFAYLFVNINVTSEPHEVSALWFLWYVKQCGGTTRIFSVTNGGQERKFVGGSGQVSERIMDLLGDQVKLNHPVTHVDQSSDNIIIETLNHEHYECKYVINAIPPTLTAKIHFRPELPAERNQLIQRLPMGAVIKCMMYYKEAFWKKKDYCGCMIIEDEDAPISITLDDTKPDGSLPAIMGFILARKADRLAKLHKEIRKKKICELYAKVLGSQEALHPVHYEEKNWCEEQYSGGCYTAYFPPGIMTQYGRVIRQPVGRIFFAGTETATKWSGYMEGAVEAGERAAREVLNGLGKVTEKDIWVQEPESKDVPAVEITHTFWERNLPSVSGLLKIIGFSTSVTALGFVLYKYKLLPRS
The experiment in a line: biochemical. The conditions noted are these: for Residual Activity (%) hMAO-A: 1-µM concentration (footnote a); for inhibition type for hMAO-A: Lineweaver–Burk plot; for SI (selectivity index): hMAO-B/hMAO-A using IC50 values; for remaining activity at 2 µg/mL: read-out: Residual Activity at 2 µg/mL (%) hMAO-A. The procedure: (§1) Human recombinant MAO-A and MAO-B were assayed in a reaction mixture of 0.5 mL containing 50 mM sodium phosphate buffer (pH 7.2) and the substrates (0.06 mM kynuramine for hMAO-A and 0.3 mM benzylamine for hMAO-B). […] [30, 31]. The reactions were started with the addition of substrates without preincubation of the enzyme and inhibitor.

The target of data set [2] is T2, hMAO-B (Homo sapiens, UniProt P27338).
T2 sequence (P27338 1-520): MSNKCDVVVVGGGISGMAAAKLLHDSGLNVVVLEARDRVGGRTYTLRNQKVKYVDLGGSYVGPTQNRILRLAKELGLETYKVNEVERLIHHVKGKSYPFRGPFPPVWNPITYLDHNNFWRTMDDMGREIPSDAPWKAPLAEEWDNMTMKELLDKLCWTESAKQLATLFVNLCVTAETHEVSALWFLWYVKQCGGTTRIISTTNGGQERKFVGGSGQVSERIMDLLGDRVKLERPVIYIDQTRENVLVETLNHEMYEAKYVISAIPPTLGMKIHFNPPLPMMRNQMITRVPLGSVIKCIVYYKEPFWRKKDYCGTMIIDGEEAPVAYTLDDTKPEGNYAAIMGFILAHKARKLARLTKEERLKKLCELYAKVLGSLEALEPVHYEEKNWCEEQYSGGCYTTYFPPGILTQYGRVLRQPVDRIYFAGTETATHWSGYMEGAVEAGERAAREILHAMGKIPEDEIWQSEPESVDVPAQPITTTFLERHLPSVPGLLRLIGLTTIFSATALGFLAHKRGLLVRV
In words: biochemical. As to conditions: for Residual Activity (%) hMAO-B: 1-µM concentration (footnote a). The procedure: as §1

Data set [3] deals with T1, hMAO-A. The class given is biochemical. As to conditions: for reversibility of hMAO-A inhibition: recovery test after dialysis; for residual hMAO-A activity after dialysis / residual hMAO-A activity before dialysis: ~2 × IC50: AT 0.040 µM, HAT 0.60 µM, MED 18.0 µM, toloxatone 2.0 µM, clorgyline 0.014 µM.
Data set [4] addresses BACE1 (Homo sapiens, UniProt P56817). The experiment in a line: BACE1 activity assay (fluorescence kit). The conditions noted are these: for IC50: IC50 BACE1; for remaining activity at 10 µM: read-out: Residual Activity at 10 µM (%) BACE1.
Protocol: Assays for inhibitory activities of compounds against hMAO-A, hMAO-B, AChE, BChE, and BACE1 were performed at 10-µM concentration of inhibitor.
For data set [5], the target named is T3, BChE (Equus caballus, UniProt P81908).
T3 construct: from tissue; host or cells: horse serum
The experiment in a line: biochemical. Further details: species or system horse. As to conditions: read-out: Residual Activity at 10 µM (%) BChE. The protocol:
AChE from electric eel and BChE from horse serum were used for cholinesterases and assayed with a slight modification of the Ellman method. Shortly, after pre-incubating the enzyme and inhibitor for 15 min in 100 mM of sodium phosphate buffer (pH 7.5), 0.5 mM acetylthiocholine iodide (ATCI) or butyrylthiocholine iodide (BTCI) was added as a substrate for AChE or BChE assay, respectively. Then, 0.5 mM 5,5-dithiobis (2-nitrobenzoic acid) (DTNB) was added for color development for a final volume of 0.5 mL. Enzyme activity was measured for 15 min at room temperature in a kinetic mode at 412 nm.

For data set [6], the system named is topoisomerase II. As to conditions: cited from earlier work.
Data set [7] has as its target T4, AChE (Electrophorus electricus, UniProt O42275).
T4 construct: AChE from electric eel and BChE from horse serum were used; from tissue; host or cells: electric eel
In words: biochemical. Further details: species or system electric eel. The conditions noted are these: for remaining activity at 10 µM: read-out: Residual Activity at 10 µM (%) AChE.

Data set [8] has as its target T1, hMAO-A. As to conditions: cited from earlier work.
In data set [9] the target is T2, hMAO-B. On the set-up: method as in PMID 33530616. As to conditions: cited from earlier work.
Data set [10] has as its system MAO. As to conditions: read-out: IC50 MAO inhibitory activity; cited from earlier work.

Sequence of BACE1 (P56817 46-501): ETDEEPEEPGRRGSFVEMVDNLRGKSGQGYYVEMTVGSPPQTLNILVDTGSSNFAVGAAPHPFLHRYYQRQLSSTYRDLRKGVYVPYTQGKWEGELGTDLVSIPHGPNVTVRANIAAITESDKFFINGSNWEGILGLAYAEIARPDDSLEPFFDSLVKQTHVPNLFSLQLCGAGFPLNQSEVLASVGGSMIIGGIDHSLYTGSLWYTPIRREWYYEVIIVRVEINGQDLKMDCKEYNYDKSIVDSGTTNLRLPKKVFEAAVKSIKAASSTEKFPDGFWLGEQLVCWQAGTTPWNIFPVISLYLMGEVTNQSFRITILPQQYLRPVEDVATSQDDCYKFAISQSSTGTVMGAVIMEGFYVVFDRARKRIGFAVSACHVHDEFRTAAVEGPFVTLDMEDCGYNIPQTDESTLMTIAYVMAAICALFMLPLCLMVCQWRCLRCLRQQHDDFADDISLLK
T4 sequence (O42275 24-633): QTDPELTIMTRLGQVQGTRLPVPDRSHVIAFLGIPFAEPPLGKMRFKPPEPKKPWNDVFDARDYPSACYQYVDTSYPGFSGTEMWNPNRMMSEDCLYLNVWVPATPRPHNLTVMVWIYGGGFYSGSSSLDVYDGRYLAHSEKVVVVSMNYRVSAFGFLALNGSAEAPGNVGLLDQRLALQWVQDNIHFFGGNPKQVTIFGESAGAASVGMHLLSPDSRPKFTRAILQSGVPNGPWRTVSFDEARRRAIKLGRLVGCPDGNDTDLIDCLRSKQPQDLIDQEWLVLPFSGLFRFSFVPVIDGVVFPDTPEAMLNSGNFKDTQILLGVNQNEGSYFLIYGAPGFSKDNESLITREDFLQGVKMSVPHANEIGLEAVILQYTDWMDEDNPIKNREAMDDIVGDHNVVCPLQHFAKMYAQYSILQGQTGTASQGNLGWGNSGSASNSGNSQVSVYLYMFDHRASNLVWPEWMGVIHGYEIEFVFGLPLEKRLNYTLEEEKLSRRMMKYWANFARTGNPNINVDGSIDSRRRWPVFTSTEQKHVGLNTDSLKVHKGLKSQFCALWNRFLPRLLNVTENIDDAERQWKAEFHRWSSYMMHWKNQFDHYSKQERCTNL
T3 sequence (P81908 whole entry): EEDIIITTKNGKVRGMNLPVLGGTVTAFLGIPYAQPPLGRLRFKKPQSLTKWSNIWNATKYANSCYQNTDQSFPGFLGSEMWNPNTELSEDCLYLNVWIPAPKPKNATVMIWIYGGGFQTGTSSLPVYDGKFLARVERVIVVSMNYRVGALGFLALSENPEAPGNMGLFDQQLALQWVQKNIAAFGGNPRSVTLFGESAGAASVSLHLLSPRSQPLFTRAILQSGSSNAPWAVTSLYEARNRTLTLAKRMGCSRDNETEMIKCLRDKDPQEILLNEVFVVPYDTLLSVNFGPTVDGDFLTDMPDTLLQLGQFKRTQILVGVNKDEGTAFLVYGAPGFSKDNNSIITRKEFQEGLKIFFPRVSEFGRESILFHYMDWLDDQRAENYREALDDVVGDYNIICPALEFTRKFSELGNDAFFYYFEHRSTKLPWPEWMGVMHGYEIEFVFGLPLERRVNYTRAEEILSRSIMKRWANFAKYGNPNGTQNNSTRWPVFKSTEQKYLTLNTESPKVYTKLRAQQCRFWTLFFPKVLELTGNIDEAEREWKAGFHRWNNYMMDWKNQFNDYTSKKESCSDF

On to `Cc1cc(O)cc2oc(=O)c3c(O)cc(O)cc3c12` [AT, alternariol], for which, in data set [1], the affinity, expressed as Ki, was 0.0075 µM; the “times higher hMAO-A inhibitory activity than toloxatone” value came to 54.0 times; the “Residual Activity (%) hMAO-A” value is −3.1 ± 0.0%; the “inhibition type for hMAO-A” value is “reversible competitive inhibitors”. In data set [1], the “SI (selectivity index)” value turned out to be 1035 and the remaining activity at 2 µg/mL was -5.41 ± 0.98%. Besides, in [1] (IC50 hMAO-A), half-maximal inhibition (IC50) was put at 0.02 ± 0.001 µM. Also, in data set [2], the IC50 amounted to 20.7 ± 2.2 µM and the “Residual Activity (%) hMAO-B” value is given as 75.6 ± 2.3%. In data set [3], the “reversibility of hMAO-A inhibition” value is reported as “reversible inhibitors”, the “residual hMAO-A activity after dialysis” value came out at 60.5% and the “residual hMAO-A activity before dialysis” value was 33.5%. In [4], inhibition was half-maximal at 36.7 ± 3.3 µM (IC50) and the remaining activity at 10 µM is 80.9 ± 0.2%. The remaining activity at 10 µM in [5] was found to be 93.3 ± 4.1%. The “concentration at which ROS formation and topoisomerase II interaction relate to toxicity” value in data set [6] is listed as over 10 µM. In data set [7], the IC50 came out at 10 ± 0.9 µM and the remaining activity at 10 µM stood at 58.7 ± 2%.

In the case of `Cc1c(O)c(O)cc2oc(=O)c3c(O)cc(O)cc3c12` [HAT, 5′-hydroxy-alternariol], in data set [1], the Ki stood at 0.116 µM, the “times higher hMAO-A inhibitory activity than toloxatone” value is 3.5 times, the “Residual Activity (%) hMAO-A” value came out at 17.7 ± 1.1% and the “inhibition type for hMAO-A” value is given as “reversible competitive inhibitors”. In addition, in data set [1], the “SI (selectivity index)” value was over 129 and the remaining activity at 2 µg/mL was 3.39 ± 3.43%. Also, the IC50 in data set [1] (IC50 hMAO-A) was 0.31 ± 0.02 µM. Besides, the “times effective against hMAO-A than alternariol monomethyl ether” value in [1] (ratio of IC50 values) turned out to be 5.5 times. Further, in data set [2], the concentration for half-maximal inhibition (IC50) is over 40 µM and the “Residual Activity (%) hMAO-B” value is on record as 83.3 ± 4.0%. Besides, in data set [3], the “reversibility of hMAO-A inhibition” value is listed as “reversible inhibitors”, the “residual hMAO-A activity after dialysis” value is reported as 79.4% and the “residual hMAO-A activity before dialysis” value is 42.1%. In [4], half-maximal inhibition (IC50) required 24.7 µM and the remaining activity at 10 µM stood at 71.3 ± 3.8%. For the same compound, the remaining activity at 10 µM in [5] worked out at 96.2 ± 2.3%. Further, in [7], it took 19.9 ± 0.2 µM to reach half-maximal inhibition (IC50) and the remaining activity at 10 µM worked out at 65.6 ± 3.8%.

On to `CC(=O)O[C@H]1C=CC(=O)O[C@H]1[C@@H]1[C@H](C)[C@H]2C=CC=C[C@@H]1O2` [MED, mycoepoxydiene], for which the “inhibition type for hMAO-A” value in data set [1] was “reversible competitive inhibitors”. In addition, in data set [1] (Lineweaver–Burk secondary plot, read-out: Ki hMAO-A), the Ki is 3.76 µM. The “SI (selectivity index)” value in data set [1] is listed as over 4.59. Also, in data set [1] (isolated compounds from ELF29, 2 µg/mL), the remaining activity at 2 µg/mL turned out to be 66.7 ± 1.84%. Moreover, the IC50 in data set [1] (read-out: IC50 hMAO-A) was 8.68 µM and 8.7 µM; in [2] (read-out: IC50 hMAO-B) it was over 40 µM; in data set [4] it was 35.9 ± 0.3 µM; in [7] (read-out: IC50 AChE), 18.6 ± 1.3 µM. For the same compound, the remaining activity at 10 µM in data set [1] (read-out: Residual Activity at 10 µM (%) hMAO-A) was 42.7 ± 0.9%; in [2] (read-out: Residual Activity at 10 µM (%) hMAO-B) it was 85.4 ± 6.9%; in data set [4], 80.5 ± 2.7%; in [5] it was 95.5 ± 5.5%; in [7], 65.2 ± 2.7%. In addition, in data set [3], the “reversibility of hMAO-A inhibition” value is listed as “reversible inhibitors”. Besides, the “residual hMAO-A activity after dialysis” value in [3] was 83.7%. Further, the “residual hMAO-A activity before dialysis” value in data set [3] is 28.7%.

For `COc1cc(O)c2c(=O)oc3cc(O)cc(C)c3c2c1` [alternariol monomethyl ether], the IC50 in data set [8] is 1.71 µM.

As for `CC1CC(=O)c2c(O)cccc2O1` (centres unmarked) [hydroxy-2-methyl-chroman-4-one], the half-maximal inhibitory concentration (IC50) in [9] was 3.23 µM; in data set [8], 14 µM.

For `CCCCCC(=O)c1c(O)cc2c(c1O)C(=O)c1c(O)cc(OC)cc1C2=O` [solorinic acid], in data set [10], the IC50 is 14.3 µM.
